Values belong to the molecule of their own block, whether it stands above or below them.
Legend:
Assay in all cases: Caliper, Mobility shift assay off-chip
[1] = tested on: ABL1 (human), P00519 [T315I]
[2] = biological target: AKT3 (human) (UniProt Q9Y243)
[3] = biological target: CAMK1D (human) (UniProt Q8IU85)
[4] = biological target: CAMK2G (human) (UniProt Q13555)
[5] = biological target: CDC42BPA (human) (UniProt Q5VT25)
[6] = biological target: CHEK2 (human) (UniProt O96017)
[7] = biological target: CSF1R (human) (UniProt P07333)
[8] = biological target: CSNK2A2 (human) (UniProt P19784)
[9] = biological target: DAPK2 (human) (UniProt Q9UIK4)
[10] = biological target: DYRK2 (human) (UniProt Q92630)
[11] = tested on: EGFR (human), P00533 [L858R]
[12] = biological target: EPHA8 (human) (UniProt P29322)
[13] = biological target: FER (human) (UniProt P16591)
[14] = biological target: FLT4 (human) (UniProt P35916)
[15] = biological target: GSG2 (human) (UniProt Q8TF76)
[16] = biological target: IRAK4 (human) (UniProt Q9NWZ3)
[17] = biological target: JAK3 JH1 JH2 (human) (UniProt P52333)
[18] = tested on: KIT (human), P10721 [D816H]
[19] = tested on: KIT (human), P10721 [D816V]
[20] = biological target: MAP2K6 (human) (UniProt P52564)
[21] = biological target: MAP3K9 (human) (UniProt P80192)
Sequence of MAP3K9 (human) (P80192 whole entry, looked up): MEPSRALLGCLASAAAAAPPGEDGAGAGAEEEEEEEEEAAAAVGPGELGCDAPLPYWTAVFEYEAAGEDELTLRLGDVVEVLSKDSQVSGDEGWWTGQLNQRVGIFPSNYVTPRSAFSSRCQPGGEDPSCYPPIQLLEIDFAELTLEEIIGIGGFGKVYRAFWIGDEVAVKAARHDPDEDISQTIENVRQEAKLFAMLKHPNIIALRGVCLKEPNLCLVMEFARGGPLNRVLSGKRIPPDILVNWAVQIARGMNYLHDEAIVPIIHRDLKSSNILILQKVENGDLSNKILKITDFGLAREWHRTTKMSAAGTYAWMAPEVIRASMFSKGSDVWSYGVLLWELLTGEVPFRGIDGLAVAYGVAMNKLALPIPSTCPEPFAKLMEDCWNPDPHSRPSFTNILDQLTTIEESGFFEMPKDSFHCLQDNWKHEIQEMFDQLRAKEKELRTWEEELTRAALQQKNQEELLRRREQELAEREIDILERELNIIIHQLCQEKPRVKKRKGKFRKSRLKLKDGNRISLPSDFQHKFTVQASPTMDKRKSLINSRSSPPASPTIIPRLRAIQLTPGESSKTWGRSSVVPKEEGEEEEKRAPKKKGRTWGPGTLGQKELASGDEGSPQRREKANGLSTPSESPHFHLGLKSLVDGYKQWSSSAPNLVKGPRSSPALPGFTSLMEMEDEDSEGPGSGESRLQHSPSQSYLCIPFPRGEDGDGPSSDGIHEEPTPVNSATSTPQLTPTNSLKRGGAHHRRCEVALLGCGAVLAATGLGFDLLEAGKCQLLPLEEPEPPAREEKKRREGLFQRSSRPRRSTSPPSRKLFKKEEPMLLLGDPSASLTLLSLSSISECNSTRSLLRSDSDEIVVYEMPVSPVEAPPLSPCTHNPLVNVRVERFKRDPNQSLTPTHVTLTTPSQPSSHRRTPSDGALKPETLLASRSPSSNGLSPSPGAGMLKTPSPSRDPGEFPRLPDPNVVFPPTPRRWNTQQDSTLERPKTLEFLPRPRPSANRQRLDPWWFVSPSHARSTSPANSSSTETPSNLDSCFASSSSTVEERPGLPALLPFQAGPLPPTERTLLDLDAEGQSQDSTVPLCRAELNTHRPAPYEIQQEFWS

[22] = biological target: MAPK14 (human) (UniProt Q16539)
Sequence of MAPK14 (human) (Q16539 whole entry, looked up): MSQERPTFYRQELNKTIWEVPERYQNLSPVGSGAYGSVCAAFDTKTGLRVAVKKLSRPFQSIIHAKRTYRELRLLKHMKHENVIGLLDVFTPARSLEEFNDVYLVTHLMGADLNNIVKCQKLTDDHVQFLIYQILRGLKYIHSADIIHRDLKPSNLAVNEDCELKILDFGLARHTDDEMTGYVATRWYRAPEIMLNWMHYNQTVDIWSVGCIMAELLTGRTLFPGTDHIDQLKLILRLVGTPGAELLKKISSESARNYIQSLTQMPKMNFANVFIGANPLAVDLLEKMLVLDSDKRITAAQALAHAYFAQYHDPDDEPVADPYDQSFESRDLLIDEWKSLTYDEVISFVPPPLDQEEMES

[23] = biological target: MAPKAPK3 (human) (UniProt Q16644)
[24] = biological target: MARK1 (human) (UniProt Q9P0L2)
Sequence of MARK1 (human) (Q9P0L2 whole entry, looked up): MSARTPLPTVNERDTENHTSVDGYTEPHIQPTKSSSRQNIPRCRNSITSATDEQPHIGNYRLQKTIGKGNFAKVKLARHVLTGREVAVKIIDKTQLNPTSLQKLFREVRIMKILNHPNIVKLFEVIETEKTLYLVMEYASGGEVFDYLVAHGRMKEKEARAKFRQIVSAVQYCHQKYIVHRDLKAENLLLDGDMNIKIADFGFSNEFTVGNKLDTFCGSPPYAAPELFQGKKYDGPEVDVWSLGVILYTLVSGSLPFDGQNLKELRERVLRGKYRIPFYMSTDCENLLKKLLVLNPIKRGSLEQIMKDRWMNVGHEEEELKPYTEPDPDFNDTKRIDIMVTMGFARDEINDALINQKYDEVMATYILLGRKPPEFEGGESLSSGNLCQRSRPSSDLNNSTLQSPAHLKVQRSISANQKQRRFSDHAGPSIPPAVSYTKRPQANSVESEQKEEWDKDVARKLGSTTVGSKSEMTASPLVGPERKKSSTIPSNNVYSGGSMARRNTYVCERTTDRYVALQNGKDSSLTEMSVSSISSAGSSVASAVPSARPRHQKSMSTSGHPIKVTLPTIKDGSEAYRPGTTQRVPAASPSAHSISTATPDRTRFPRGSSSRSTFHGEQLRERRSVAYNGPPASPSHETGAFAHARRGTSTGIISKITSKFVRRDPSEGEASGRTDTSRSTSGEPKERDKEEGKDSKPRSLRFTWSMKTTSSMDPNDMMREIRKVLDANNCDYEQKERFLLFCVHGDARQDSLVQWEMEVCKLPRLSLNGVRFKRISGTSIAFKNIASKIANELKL

[25] = biological target: MELK (human) (UniProt Q14680)
[26] = biological target: PAK2 (human) (UniProt Q13177)
[27] = biological target: PAK7 (human) (UniProt Q9P286)
[28] = biological target: PDGFRA (human) (UniProt P16234)
[29] = tested on: PDGFRA (human), P16234 [D842V]
[30] = biological target: PDPK1 (human) (UniProt O15530)
Sequence of PDPK1 (human) (O15530 whole entry, looked up): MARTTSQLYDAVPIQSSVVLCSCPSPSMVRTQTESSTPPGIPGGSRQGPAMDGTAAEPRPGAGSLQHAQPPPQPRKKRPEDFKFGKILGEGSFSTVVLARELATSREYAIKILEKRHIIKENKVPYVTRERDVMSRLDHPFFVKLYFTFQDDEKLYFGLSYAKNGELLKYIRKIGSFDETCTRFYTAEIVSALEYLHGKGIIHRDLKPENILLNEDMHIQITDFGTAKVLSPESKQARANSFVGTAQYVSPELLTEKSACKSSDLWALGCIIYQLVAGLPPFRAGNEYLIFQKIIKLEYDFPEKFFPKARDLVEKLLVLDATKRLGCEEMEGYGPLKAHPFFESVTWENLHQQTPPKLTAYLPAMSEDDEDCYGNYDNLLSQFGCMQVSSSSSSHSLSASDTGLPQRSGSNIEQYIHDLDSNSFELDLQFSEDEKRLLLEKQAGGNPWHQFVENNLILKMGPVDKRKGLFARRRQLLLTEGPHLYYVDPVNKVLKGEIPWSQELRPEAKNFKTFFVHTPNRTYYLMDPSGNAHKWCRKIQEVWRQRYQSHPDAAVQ

[31] = biological target: PKN2 (human) (UniProt Q16513)
Sequence of PKN2 (human) (Q16513 whole entry, looked up): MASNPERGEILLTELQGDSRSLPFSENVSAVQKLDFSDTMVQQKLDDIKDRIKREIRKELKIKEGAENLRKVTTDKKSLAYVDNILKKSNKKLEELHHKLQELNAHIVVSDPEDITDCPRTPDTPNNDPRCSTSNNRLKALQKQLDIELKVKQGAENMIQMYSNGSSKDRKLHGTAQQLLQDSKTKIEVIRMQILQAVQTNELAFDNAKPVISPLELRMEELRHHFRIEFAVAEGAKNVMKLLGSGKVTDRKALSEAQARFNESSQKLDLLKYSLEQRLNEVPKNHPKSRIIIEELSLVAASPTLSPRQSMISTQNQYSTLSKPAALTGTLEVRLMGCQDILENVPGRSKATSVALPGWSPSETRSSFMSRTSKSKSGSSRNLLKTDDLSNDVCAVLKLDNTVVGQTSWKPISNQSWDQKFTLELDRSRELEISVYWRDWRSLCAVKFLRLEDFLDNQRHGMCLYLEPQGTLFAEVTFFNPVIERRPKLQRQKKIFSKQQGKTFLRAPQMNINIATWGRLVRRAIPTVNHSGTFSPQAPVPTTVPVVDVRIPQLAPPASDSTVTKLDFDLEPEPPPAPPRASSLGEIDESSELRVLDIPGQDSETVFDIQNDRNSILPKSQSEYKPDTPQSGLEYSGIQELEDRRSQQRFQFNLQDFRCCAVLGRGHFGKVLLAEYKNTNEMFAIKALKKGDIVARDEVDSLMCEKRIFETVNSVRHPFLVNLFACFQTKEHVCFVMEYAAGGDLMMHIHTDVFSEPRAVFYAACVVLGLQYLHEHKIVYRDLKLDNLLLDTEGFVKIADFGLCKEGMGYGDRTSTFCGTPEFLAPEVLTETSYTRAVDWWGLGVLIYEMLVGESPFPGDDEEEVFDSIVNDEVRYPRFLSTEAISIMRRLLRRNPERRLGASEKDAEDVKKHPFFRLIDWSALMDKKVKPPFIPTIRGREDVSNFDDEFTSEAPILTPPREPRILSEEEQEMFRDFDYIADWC

[32] = biological target: PRKACA (human) (UniProt P17612)
[33] = biological target: PRKCB2 (human) (UniProt P05771)
[34] = biological target: PRKD1 (human) (UniProt Q15139)
[35] = biological target: PRKX (human) (UniProt P51817)
[36] = biological target: RAF1 (human) (UniProt P04049)
[37] = biological target: RPS6KA3 KD1 KD2 (human) (UniProt P51812)
[38] = biological target: SRPK1 (human) (UniProt Q96SB4)
[39] = biological target: STK10 (human) (UniProt O94804)
Sequence of STK10 (human) (O94804 whole entry, looked up): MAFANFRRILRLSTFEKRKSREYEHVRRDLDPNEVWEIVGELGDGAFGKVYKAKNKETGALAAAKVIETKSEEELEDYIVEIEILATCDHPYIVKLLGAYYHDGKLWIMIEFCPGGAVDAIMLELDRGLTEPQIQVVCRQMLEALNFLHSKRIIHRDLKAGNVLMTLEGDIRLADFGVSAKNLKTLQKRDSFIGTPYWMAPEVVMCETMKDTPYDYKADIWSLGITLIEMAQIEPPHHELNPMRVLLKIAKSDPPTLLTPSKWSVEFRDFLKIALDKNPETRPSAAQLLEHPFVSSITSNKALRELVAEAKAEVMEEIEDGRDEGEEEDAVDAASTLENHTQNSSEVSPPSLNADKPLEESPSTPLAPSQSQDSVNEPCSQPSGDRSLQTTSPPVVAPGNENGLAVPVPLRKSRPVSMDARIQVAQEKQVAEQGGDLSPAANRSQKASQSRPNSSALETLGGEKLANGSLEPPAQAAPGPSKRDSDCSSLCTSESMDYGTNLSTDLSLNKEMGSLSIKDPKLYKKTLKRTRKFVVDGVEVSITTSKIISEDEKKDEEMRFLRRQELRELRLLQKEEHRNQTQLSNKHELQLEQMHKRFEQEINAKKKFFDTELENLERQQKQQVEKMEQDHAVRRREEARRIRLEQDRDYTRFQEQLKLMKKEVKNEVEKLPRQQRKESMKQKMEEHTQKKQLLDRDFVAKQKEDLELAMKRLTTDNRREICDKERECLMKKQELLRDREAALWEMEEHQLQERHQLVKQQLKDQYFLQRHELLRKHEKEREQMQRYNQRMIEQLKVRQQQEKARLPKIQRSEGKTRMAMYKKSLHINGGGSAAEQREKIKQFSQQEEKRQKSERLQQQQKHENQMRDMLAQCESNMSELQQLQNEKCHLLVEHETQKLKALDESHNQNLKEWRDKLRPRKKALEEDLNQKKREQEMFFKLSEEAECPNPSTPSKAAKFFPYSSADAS

[40] = biological target: SYK (human) (UniProt P43405)
[41] = biological target: TAOK3 (human) (UniProt Q9H2K8)

residual activity ([1]; compound 10.0 µM): 62%
residual activity ([2]; compound 10.0 µM): 26%
residual activity ([3]; compound 10.0 µM): 47%
residual activity ([4]; compound 10.0 µM): 58%
residual activity ([5]; compound 10.0 µM): 85%
residual activity ([6]; compound 10.0 µM): 5%
residual activity ([7]; compound 10.0 µM): 17%
residual activity ([8]; compound 10.0 µM): 90%
residual activity ([9]; compound 10.0 µM): 85%
residual activity ([10]; compound 10.0 µM): 86%
residual activity ([11]; compound 10.0 µM): 50%
residual activity ([12]; compound 10.0 µM): 91%
residual activity ([13]; compound 10.0 µM): 14%
residual activity ([14]; compound 10.0 µM): 1%
residual activity ([15]; compound 10.0 µM): 0%
residual activity ([16]; compound 10.0 µM): 73%
residual activity ([17]; compound 10.0 µM): 55%
residual activity ([18]; compound 10.0 µM): 22%
residual activity ([19]; compound 10.0 µM): 92%
residual activity ([20]; compound 10.0 µM): 33%
residual activity ([21]; compound 10.0 µM): 8%
residual activity ([22]; compound 10.0 µM): 72%
residual activity ([23]; compound 10.0 µM): 84%
residual activity ([24]; compound 10.0 µM): 86%
residual activity ([25]; compound 10.0 µM): 13%
residual activity ([26]; compound 10.0 µM): 98%
residual activity ([27]; compound 10.0 µM): 121%
residual activity ([28]; compound 10.0 µM): 79%
residual activity ([29]; compound 10.0 µM): 5%
residual activity ([30]; compound 10.0 µM): 43%
residual activity ([31]; compound 10.0 µM): 13%
residual activity ([32]; compound 10.0 µM): 51%
residual activity ([33]; compound 10.0 µM): 118%
residual activity ([34]; compound 10.0 µM): 32%
residual activity ([35]; compound 10.0 µM): 91%
residual activity ([36]; compound 10.0 µM): 94%
residual activity ([37]; compound 10.0 µM): 24%
residual activity ([38]; compound 10.0 µM): 80%
residual activity ([39]; compound 10.0 µM): 18%
residual activity ([40]; compound 10.0 µM): 33%
residual activity ([41]; compound 10.0 µM): 66%
Compound: COc1ccc(C#Cc2ccc3ncc4ncn(-c5ccc(CCN)cc5)c4c3c2)cc1

residual activity ([22]; compound 10.0 µM): 51%
residual activity ([25]; compound 10.0 µM): 6%
residual activity ([30]; compound 10.0 µM): 0%
residual activity ([36]; compound 10.0 µM): 128%
Compound: CC(C)(C)c1nc2c3ccc(F)cc3c3c(=O)[nH]ccc3c2[nH]1

residual activity ([1]; compound 1.0 µM): 88%
residual activity ([2]; compound 1.0 µM): 102%
residual activity ([3]; compound 1.0 µM): 55%
residual activity ([4]; compound 1.0 µM): 13%
residual activity ([5]; compound 1.0 µM): 111%
residual activity ([6]; compound 1.0 µM): 4%
residual activity ([7]; compound 1.0 µM): 10%
residual activity ([8]; compound 1.0 µM): 112%
residual activity ([9]; compound 1.0 µM): 36%
residual activity ([10]; compound 1.0 µM): 102%
residual activity ([11]; compound 1.0 µM): 76%
residual activity ([12]; compound 1.0 µM): 108%
residual activity ([13]; compound 1.0 µM): 6%
residual activity ([14]; compound 1.0 µM): 2%
residual activity ([15]; compound 1.0 µM): 158%
residual activity ([16]; compound 1.0 µM): 122%
residual activity ([17]; compound 1.0 µM): 56%
residual activity ([18]; compound 1.0 µM): 9%
residual activity ([19]; compound 1.0 µM): 93%
residual activity ([20]; compound 1.0 µM): 106%
residual activity ([21]; compound 1.0 µM): 1%
residual activity ([22]; compound 1.0 µM): 107%
residual activity ([23]; compound 1.0 µM): 95%
residual activity ([24]; compound 1.0 µM): 61%
residual activity ([25]; compound 1.0 µM): 67%
residual activity ([26]; compound 1.0 µM): 99%
residual activity ([27]; compound 1.0 µM): 103%
residual activity ([28]; compound 1.0 µM): 74%
residual activity ([29]; compound 1.0 µM): 1%
residual activity ([30]; compound 1.0 µM): 2%
residual activity ([31]; compound 1.0 µM): 10%
residual activity ([32]; compound 1.0 µM): 106%
residual activity ([33]; compound 1.0 µM): 105%
residual activity ([34]; compound 1.0 µM): 86%
residual activity ([35]; compound 1.0 µM): 103%
residual activity ([36]; compound 1.0 µM): 107%
residual activity ([37]; compound 1.0 µM): 5%
residual activity ([38]; compound 1.0 µM): 104%
residual activity ([39]; compound 1.0 µM): 25%
residual activity ([40]; compound 1.0 µM): 105%
residual activity ([41]; compound 1.0 µM): 104%
Compound: C[C@@H](Nc1nc2c(C#CC3CC3)c[nH]c(=O)c2c2cc(-c3cn[nH]c3)ccc12)C(C)(C)C

residual activity ([1]; compound 1.0 µM): 113%
residual activity ([2]; compound 1.0 µM): 103%
residual activity ([3]; compound 1.0 µM): 86%
residual activity ([4]; compound 1.0 µM): 9%
residual activity ([5]; compound 1.0 µM): 97%
residual activity ([6]; compound 1.0 µM): 60%
residual activity ([7]; compound 1.0 µM): 86%
residual activity ([8]; compound 1.0 µM): 109%
residual activity ([9]; compound 1.0 µM): 100%
residual activity ([10]; compound 1.0 µM): 97%
residual activity ([11]; compound 1.0 µM): 102%
residual activity ([12]; compound 1.0 µM): 106%
residual activity ([13]; compound 1.0 µM): 129%
residual activity ([14]; compound 1.0 µM): 13%
residual activity ([15]; compound 1.0 µM): 87%
residual activity ([16]; compound 1.0 µM): 85%
residual activity ([17]; compound 1.0 µM): 2%
residual activity ([18]; compound 1.0 µM): 14%
residual activity ([19]; compound 1.0 µM): 76%
residual activity ([20]; compound 1.0 µM): 108%
residual activity ([21]; compound 1.0 µM): 23%
residual activity ([22]; compound 1.0 µM): 108%
residual activity ([23]; compound 1.0 µM): 107%
residual activity ([24]; compound 1.0 µM): 2%
residual activity ([25]; compound 1.0 µM): 53%
residual activity ([26]; compound 1.0 µM): 111%
residual activity ([27]; compound 1.0 µM): 115%
residual activity ([28]; compound 1.0 µM): 86%
residual activity ([29]; compound 1.0 µM): -6%
residual activity ([30]; compound 1.0 µM): 5%
residual activity ([31]; compound 1.0 µM): 63%
residual activity ([32]; compound 1.0 µM): 77%
residual activity ([33]; compound 1.0 µM): 106%
residual activity ([34]; compound 1.0 µM): 53%
residual activity ([35]; compound 1.0 µM): 70%
residual activity ([36]; compound 1.0 µM): 94%
residual activity ([37]; compound 1.0 µM): 118%
residual activity ([38]; compound 1.0 µM): 100%
residual activity ([39]; compound 1.0 µM): 87%
residual activity ([40]; compound 1.0 µM): 66%
residual activity ([41]; compound 1.0 µM): 10%
Compound: O=C(NCCCNc1nc(Nc2cccc(NC(=O)N3CCCC3)c2)ncc1I)c1cccs1

residual activity ([1]; compound 1.0 µM): 86%
residual activity ([2]; compound 1.0 µM): 90%
residual activity ([6]; compound 1.0 µM): 5%
residual activity ([7]; compound 1.0 µM): 55%
residual activity ([9]; compound 1.0 µM): 90%
residual activity ([10]; compound 1.0 µM): 99%
residual activity ([11]; compound 1.0 µM): 105%
residual activity ([13]; compound 1.0 µM): 104%
residual activity ([16]; compound 1.0 µM): 85%
residual activity ([17]; compound 1.0 µM): 100%
residual activity ([19]; compound 1.0 µM): 107%
residual activity ([20]; compound 1.0 µM): 106%
residual activity ([22]; compound 1.0 µM): 94%
residual activity ([23]; compound 1.0 µM): 105%
residual activity ([24]; compound 1.0 µM): 4%
residual activity ([26]; compound 1.0 µM): 106%
residual activity ([28]; compound 1.0 µM): 110%
residual activity ([30]; compound 1.0 µM): 3%
residual activity ([31]; compound 1.0 µM): 78%
residual activity ([32]; compound 1.0 µM): 74%
residual activity ([34]; compound 1.0 µM): 20%
residual activity ([36]; compound 1.0 µM): 106%
residual activity ([37]; compound 1.0 µM): 2%
residual activity ([38]; compound 1.0 µM): 106%
residual activity ([39]; compound 1.0 µM): 81%
residual activity ([40]; compound 1.0 µM): 65%
Compound: Cc1n[nH]c2c1c(=O)n(CCCN)c1ccc(Cl)cc21

Compound: O=C(N[C@@H](COc1ccc2[nH]c(=O)[nH]c2c1)c1ccccc1)c1cccn(Cc2ccc(F)c(F)c2)c1=O
residual activity ([1]; compound 10.0 µM): 91%
residual activity ([2]; compound 10.0 µM): 99%
residual activity ([3]; compound 10.0 µM): 95%
residual activity ([4]; compound 10.0 µM): 97%
residual activity ([5]; compound 10.0 µM): 101%
residual activity ([6]; compound 10.0 µM): 132%
residual activity ([7]; compound 10.0 µM): 107%
residual activity ([8]; compound 10.0 µM): 105%
residual activity ([9]; compound 10.0 µM): 94%
residual activity ([10]; compound 10.0 µM): 101%
residual activity ([11]; compound 10.0 µM): 102%
residual activity ([12]; compound 10.0 µM): 107%
residual activity ([13]; compound 10.0 µM): 98%
residual activity ([14]; compound 10.0 µM): 109%
residual activity ([15]; compound 10.0 µM): 74%
residual activity ([16]; compound 10.0 µM): 108%
residual activity ([17]; compound 10.0 µM): 98%
residual activity ([18]; compound 10.0 µM): 97%
residual activity ([19]; compound 10.0 µM): 111%
residual activity ([20]; compound 10.0 µM): 115%
residual activity ([21]; compound 10.0 µM): 91%
residual activity ([22]; compound 10.0 µM): 107%
residual activity ([23]; compound 10.0 µM): 102%
residual activity ([24]; compound 10.0 µM): 99%
residual activity ([25]; compound 10.0 µM): 104%
residual activity ([26]; compound 10.0 µM): 94%
residual activity ([27]; compound 10.0 µM): 100%
residual activity ([28]; compound 10.0 µM): 108%
residual activity ([29]; compound 10.0 µM): 108%
residual activity ([31]; compound 10.0 µM): 96%
residual activity ([32]; compound 10.0 µM): 117%
residual activity ([33]; compound 10.0 µM): 96%
residual activity ([34]; compound 10.0 µM): 100%
residual activity ([35]; compound 10.0 µM): 107%
residual activity ([36]; compound 10.0 µM): 109%
residual activity ([37]; compound 10.0 µM): 124%
residual activity ([38]; compound 10.0 µM): 104%
residual activity ([39]; compound 10.0 µM): 113%
residual activity ([40]; compound 10.0 µM): 102%
residual activity ([41]; compound 10.0 µM): 98%
